Laboratory results as given in patent US20260176266A1, “PIPERIDINOPYRIMIDINE DERIVATIVE, PREPARATION METHOD THEREFOR AND USE THEREOF IN MEDICINE” (TUOJIE BIOTECH (SHANGHAI) CO., LTD., priority 2022, published 2026).

Experiments:
CDK6/CyclinD3 = CDK6/CyclinD3 (Homo sapiens, UniProt Q00534); experiment: ADP-Glo kinase assay, CDK6; assay type: biochemical; conditions: 15.7 nM CDK6/CyclinD3, 200 μM ATP (Km), Histone H1, 60 min; read-out: inhibitory activity (IC50, nM) CDK 6
Method: The ADP-Glo kinase assay was used for testing the activity of CDKs. The compounds were diluted in 384-well plates using Echo. The starting concentration was 10 μM and was 3-fold diluted to obtain 10 concentration points, each tested in duplicate, and the final concentration of DMSO in the assay system was 1%. CDK solutions (the final concentrations were 16.5 nM CDK1/CyclinB, 1 nM CDK2/CyclinE1, 16.3 nM CDK4/CyclinD1, 11.5 nM CDK5/p25, 15.7 nM CDK6/CyclinD3, 80 nM CDK7/Cyclin H/MAT1, 15.3 nM CDK9/Cyclin T1, and 150 nM CDK12/CyclinK) prepared in assay buffer were added at 2.5 μL, and the enzymes and compounds were pre-incubated at room temperature for 10 min. ATP (the concentration was Km) & substrate solutions (20 μM ATP & 0.1 mg/mL Histone H1 Protein for CDK1/CyclinB, 15 μM ATP & 0.1 mg/mL Histone H1 Protein for CDK2/CyclinE1, 200 μM ATP & 0.2 mg/mL DYRKtide peptide for CDK4/CyclinD1, 10 μM ATP & 0.1 mg/mL Histone H1 Protein for CDK5/p25, 200 μM ATP & 0.1 mg/mL Histone H1 Protein for CDK6/CyclinD3, 70 μM ATP & 0.2 mg/mL MBP for CDK7/Cyclin H/MAT1, 60 μM ATP & 0.2 mg/mL PDKtide for CDK9/Cyclin T1, and 20 μM ATP & 80 μM pS7-CTD peptide for CDK12/CyclinK) prepared in assay buffer were added at 2.5 μL. […] Readings were taken using an Envision multimode microplate reader. Data were processed using GraphPad Prism 8, and IC50 was calculated. […]

[1] = system: HCC1806 breast cancer cells; experiment: Inhibitory activity against tumor cells, CellTiter-Glo: HCC1806; assay type: cell-based; conditions: Homo sapiens, 168 h, HCC1806, 7 days treatment
Method: MCF7 (ATCC #HTB-22) and T47D (ATCC #HTB-133) breast cancer cells and PANC-1 (ATCC #CRL-1469) pancreatic cancer cells were purchased from ATCC. MDA-MB-231 (Cobioer #CBP60382), HCC1806 (Cobioer #CBP60373), and MDA-MB-468 (Cobioer #CBP60387) breast cancer cells, HCT-116 (Cobioer #CBP60028) colorectal cancer cells, and OCI-AML-3 (Cobioer #CBP60817) and MV-4-11 (Cobioer #CBP60522) leukemia cells were purchased from Nanjing Cobioer Biosciences Co., Ltd.
OCI-AML-3 was cultured in RPMI 1640 medium with 20% FBS; HCC1806 and T47D were cultured in RPMI 1640 medium with 10% FBS; MCF7, MDA-MB-231, MDA-MB-468, and PANC-1 were cultured in DMEM medium with 10% FBS; MV-4-11 was cultured in IMDM medium with 20% FBS; HCT-116 was cultured in MC′5A medium with 10% FBS.
Palbociclib-resistant cells were constructed on MCF7 parent cells, designated MCF7 Palbo-R, and the culture conditions were consistent with those of the parent cells. All tumor cells were cultured in a cell incubator at 37° C. with 5% CO2. The cells were seeded at corresponding cell densities (600 cells/well for MDA-MB-231; 500 cells/well for MDA-MB-468, PANC-1, and HCT-116; 200 cells/well for MCF7 and HCC1806; 800 cells/well for MCF7 Palbo-R; 3000 cells/well for OCI-AML-3 and MV-4-11) in 384-well plates and cultured overnight in the incubator. On the second day, the cells were treated with compounds. The maximum compound concentration was 10 μM and was 3-fold diluted to obtain 9 concentrations, each tested in duplicate, and the final concentration of DMSO was 0.1%. The cells continued to be cultured in the incubator, with MDA-MB-231, PANC-1, MDA-MB-468, OCI-AML-3, and MV-4-11 being treated with drugs for 5 days and HCC1806, MCF7, MCF7 Palbo-R, and HCT116 being treated with drugs for 7 days. Cell viability was tested using the Celltiter Glo assay kit (Promega), and the testing method was consistent with the operational method provided by the kit. Readings were taken using an Envision multimode microplate reader. Data were processed using GraphPad Prism 8, and IC50 was calculated. […]

[2] = Human liver microsome metabolism study; assay type: in vitro ADME
Method: 222.5 μL of human liver microsomes (protein concentration: 1 mg/mL) and 25 μL of NADPH ([…]) were added to an incubation plate and pre-heated for 10 min. 2.5 μL of control compound and test compound (100 μM) were added.
[…] The reaction was stopped by adding 5 volumes of cold acetonitrile containing IS (100 nM alprazolam, 200 nM caffeine, and 100 nM tolbutamide). The reaction mixture was centrifuged, and 100 μL of the supernatant was collected and mixed with 100 μL of ultrapure H2O. Then the mixture was analyzed by LC-MS/MS.
The slope value k was determined by linear regression of the natural logarithm of a curve of the parent drug remaining percentage versus incubation time.
The in-vitro half-life (in-vitro T1/2) was determined by the slope value:
Using the following equation (the average of repeated measurements), the in-vitro T½ (min) was converted to the in-vitro intrinsic clearance rate (in-vitro CLint, in μL/min/mg protein): […]

Sequence of CDK6/CyclinD3 (Q00534 whole entry, species assumed): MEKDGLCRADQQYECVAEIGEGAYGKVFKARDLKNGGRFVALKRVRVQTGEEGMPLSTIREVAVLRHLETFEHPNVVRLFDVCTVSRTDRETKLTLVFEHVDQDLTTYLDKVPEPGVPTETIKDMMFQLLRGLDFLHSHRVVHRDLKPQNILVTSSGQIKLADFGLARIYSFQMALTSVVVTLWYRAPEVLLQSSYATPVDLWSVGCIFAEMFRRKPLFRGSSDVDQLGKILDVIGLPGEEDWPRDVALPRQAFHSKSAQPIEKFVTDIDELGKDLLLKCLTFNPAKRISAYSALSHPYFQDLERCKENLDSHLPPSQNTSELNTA
Sequence of CDK6/CyclinD3 (P30281 whole entry partner, species assumed): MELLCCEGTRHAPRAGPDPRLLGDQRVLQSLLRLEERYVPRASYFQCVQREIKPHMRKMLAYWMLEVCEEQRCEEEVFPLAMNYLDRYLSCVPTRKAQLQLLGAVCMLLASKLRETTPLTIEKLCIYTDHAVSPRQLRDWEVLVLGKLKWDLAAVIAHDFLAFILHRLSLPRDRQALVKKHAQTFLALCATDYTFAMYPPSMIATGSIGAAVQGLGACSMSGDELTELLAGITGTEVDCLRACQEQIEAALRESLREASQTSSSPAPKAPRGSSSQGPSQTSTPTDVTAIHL

IC50 (CDK6/CyclinD3) [nM] | IC50 [1] [nM] | half-life at 1 μM ([2]; human liver microsomes, in-vitro half-life) [h] | microsomal CLint at 1 μM ([2]; human liver microsomes, in-vitro intrinsic clearance) [µL/min/mg] | Remaining amount % at 0.5 min ([2]; human liver microsomes, incubation 0.5 min) [%] | Remaining amount % at 5 min ([2]; human liver microsomes, incubation 5 min) [%] | Remaining amount % at 15 min ([2]; human liver microsomes, incubation 15 min) [%] | Remaining amount % at 30 min ([2]; human liver microsomes, incubation 30 min) [%] | Remaining amount % at 60 min ([2]; human liver microsomes, incubation 60 min) [%] | metabolic stability in human liver microsomes compared with Janssen-01 ([2]; summary of Tables 7 and 8, statement in words) | SMILES
> 10000 | 28.6 | > 3.08 | < 7.5 | 100.00 | 105.55 | 96.07 | 100.48 | 81.83 | more stable metabolism | C[C@@H]1Cc2cnc(NCc3ccn(C)n3)nc2CN1C(=O)N[C@H](CN(C)C)c1ccccc1 [Example 2, (R)—N—((S)-2-(Dimethylamino)-1-phenylethyl)-6-methyl-2-(((1-methyl-TH-pyrazol-3-yl)methyl)amino)-5,8-dihydropyrido[3,4-d]pyrimidine-7(6H)-carboxamide]
> 10000 | 23.7 | – | – | – | – | – | – | – | – | C[C@H](Nc1ncc2c(n1)CN(C(=O)N[C@H](CN(C)C)c1ccccc1)[C@H](C)C2)c1ccccn1 [Example 6, (R)—N—((S)-2-(Dimethylamino)-1-phenylethyl)-6-methyl-2-(((S)-1-(pyridin-2-yl)ethyl)amino)-5,8-dihydropyrido[3,4-d]pyrimidine-7(6H)-carboxamide]
